Experimental data as given in PubChem BioAssay (NCI).
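Cells were grown in 96-well plates and exposed to each compound for 48 hours at five concentrations; endpoints were interpolated linearly between bracketing concentrations, or set to the highest concentration if not reached. TGI: concentration producing complete growth inhibition.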

Key:
Assay in all cases: growth of human tumour cells (NCI), 48 h
786-0 renal = test system: 786-0 renal
A498 renal = test system: A498 renal
A549 NSCLC = test system: A549 NSCLC
ACHN renal = test system: ACHN renal
CAKI-1 renal = test system: CAKI-1 renal
CCRF-CEM leukemia = test system: CCRF-CEM leukemia
COLO 205 colon = test system: COLO 205 colon
DLD-1 colon = test system: DLD-1 colon
DMS 114 small cell lung = test system: DMS 114 small cell lung
DMS 273 small cell lung = test system: DMS 273 small cell lung
EKVX NSCLC = test system: EKVX NSCLC
HCC-2998 colon = test system: HCC-2998 colon
HCT-116 colon = test system: HCT-116 colon
HCT-15 colon = test system: HCT-15 colon
HL-60(TB) leukemia = test system: HL-60(TB) leukemia
HOP-18 NSCLC = test system: HOP-18 NSCLC
HOP-62 NSCLC = test system: HOP-62 NSCLC
HOP-92 NSCLC = test system: HOP-92 NSCLC
HT29 colon = test system: HT29 colon
IGROV1 ovarian = test system: IGROV1 ovarian
K-562 leukemia = test system: K-562 leukemia
KM12 colon = test system: KM12 colon
KM20L2 colon = test system: KM20L2 colon
LOX IMVI melanoma = test system: LOX IMVI melanoma
M14 melanoma = test system: M14 melanoma
M19-MEL melanoma = test system: M19-MEL melanoma
MALME-3M melanoma = test system: MALME-3M melanoma
MOLT-4 leukemia = test system: MOLT-4 leukemia
NCI-H226 lung = test system: NCI-H226 lung
NCI-H23 lung = test system: NCI-H23 lung
NCI-H460 lung = test system: NCI-H460 lung
NCI-H522 lung = test system: NCI-H522 lung
OVCAR-3 ovarian = test system: OVCAR-3 ovarian
OVCAR-4 ovarian = test system: OVCAR-4 ovarian
OVCAR-5 ovarian = test system: OVCAR-5 ovarian
OVCAR-8 ovarian = test system: OVCAR-8 ovarian
RPMI-8226 leukemia = test system: RPMI-8226 leukemia
RXF 393 renal = test system: RXF 393 renal
SF-268 CNS = test system: SF-268 CNS
SF-295 CNS = test system: SF-295 CNS
SF-539 CNS = test system: SF-539 CNS
SK-MEL-2 melanoma = test system: SK-MEL-2 melanoma
SK-MEL-28 melanoma = test system: SK-MEL-28 melanoma
SK-MEL-5 melanoma = test system: SK-MEL-5 melanoma
SK-OV-3 ovarian = test system: SK-OV-3 ovarian
SN12C renal = test system: SN12C renal
SNB-19 CNS = test system: SNB-19 CNS
SNB-75 CNS = test system: SNB-75 CNS
SNB-78 CNS = test system: SNB-78 CNS
SR leukemia = test system: SR leukemia
SW-620 colon = test system: SW-620 colon
TK-10 renal = test system: TK-10 renal
U251 CNS = test system: U251 CNS
UACC-257 melanoma = test system: UACC-257 melanoma
UACC-62 melanoma = test system: UACC-62 melanoma
UO-31 renal = test system: UO-31 renal
XF 498 CNS = test system: XF 498 CNS
LXFL 529 NSCLC = test system: LXFL 529 NSCLC
RXF-631 renal = test system: RXF-631 renal

Measured: TGI

CCCOP(=S)(N1CC1)N1CC1
> 100 µM: 786-0 renal | A498 renal | A549 NSCLC | ACHN renal | CAKI-1 renal | CCRF-CEM leukemia | COLO 205 colon | DLD-1 colon | DMS 114 small cell lung | DMS 273 small cell lung | EKVX NSCLC | HCC-2998 colon | HCT-116 colon | HCT-15 colon | HL-60(TB) leukemia | HOP-18 NSCLC | HOP-62 NSCLC | HOP-92 NSCLC | HT29 colon | IGROV1 ovarian | K-562 leukemia | KM12 colon | KM20L2 colon | LOX IMVI melanoma | M14 melanoma | M19-MEL melanoma | MALME-3M melanoma | MOLT-4 leukemia | NCI-H226 lung | NCI-H23 lung | NCI-H460 lung | NCI-H522 lung | OVCAR-3 ovarian | OVCAR-4 ovarian | OVCAR-5 ovarian | OVCAR-8 ovarian | RPMI-8226 leukemia | RXF 393 renal | SF-268 CNS | SF-295 CNS | SF-539 CNS | SK-MEL-2 melanoma | SK-MEL-28 melanoma | SK-MEL-5 melanoma | SK-OV-3 ovarian | SN12C renal | SNB-19 CNS | SNB-75 CNS | SNB-78 CNS | SR leukemia | SW-620 colon | TK-10 renal | U251 CNS | UACC-62 melanoma | UO-31 renal | XF 498 CNS
46.5 µM: UACC-257 melanoma

O=C(CC(=O)C1CCOC1=O)C(=O)Nc1ccc(Cl)cc1 (configuration not stated)
> 100 µM: 786-0 renal | A498 renal | A549 NSCLC | ACHN renal | CAKI-1 renal | CCRF-CEM leukemia | COLO 205 colon | DLD-1 colon | DMS 114 small cell lung | DMS 273 small cell lung | EKVX NSCLC | HCC-2998 colon | HCT-116 colon | HCT-15 colon | HL-60(TB) leukemia | HOP-62 NSCLC | HOP-92 NSCLC | HT29 colon | IGROV1 ovarian | K-562 leukemia | KM12 colon | KM20L2 colon | LOX IMVI melanoma | LXFL 529 NSCLC | M14 melanoma | M19-MEL melanoma | MALME-3M melanoma | NCI-H226 lung | NCI-H23 lung | NCI-H460 lung | NCI-H522 lung | OVCAR-3 ovarian | OVCAR-4 ovarian | OVCAR-5 ovarian | OVCAR-8 ovarian | RPMI-8226 leukemia | RXF 393 renal | RXF-631 renal | SF-268 CNS | SF-295 CNS | SF-539 CNS | SK-MEL-2 melanoma | SK-MEL-28 melanoma | SK-MEL-5 melanoma | SK-OV-3 ovarian | SN12C renal | SNB-19 CNS | SNB-75 CNS | SNB-78 CNS | SW-620 colon | TK-10 renal | U251 CNS | UACC-257 melanoma | UACC-62 melanoma | UO-31 renal
